Assay results from article PMC9873984, “Membrane cholesterol regulates inhibition and substrate transport by the glycine transporter, GlyT2” (Life Science Alliance, 2023).
Changes are numbered by the printed parent chain.

Legend:
GlyT2 F515W mutant = target: T1, GlyT2 F515W mutant (Homo sapiens, UniProt Q9Y345, F515W); details: read-out: Glycine EC50; F515W (TM7)
T1 sequence (Q9Y345 1-797 F515W): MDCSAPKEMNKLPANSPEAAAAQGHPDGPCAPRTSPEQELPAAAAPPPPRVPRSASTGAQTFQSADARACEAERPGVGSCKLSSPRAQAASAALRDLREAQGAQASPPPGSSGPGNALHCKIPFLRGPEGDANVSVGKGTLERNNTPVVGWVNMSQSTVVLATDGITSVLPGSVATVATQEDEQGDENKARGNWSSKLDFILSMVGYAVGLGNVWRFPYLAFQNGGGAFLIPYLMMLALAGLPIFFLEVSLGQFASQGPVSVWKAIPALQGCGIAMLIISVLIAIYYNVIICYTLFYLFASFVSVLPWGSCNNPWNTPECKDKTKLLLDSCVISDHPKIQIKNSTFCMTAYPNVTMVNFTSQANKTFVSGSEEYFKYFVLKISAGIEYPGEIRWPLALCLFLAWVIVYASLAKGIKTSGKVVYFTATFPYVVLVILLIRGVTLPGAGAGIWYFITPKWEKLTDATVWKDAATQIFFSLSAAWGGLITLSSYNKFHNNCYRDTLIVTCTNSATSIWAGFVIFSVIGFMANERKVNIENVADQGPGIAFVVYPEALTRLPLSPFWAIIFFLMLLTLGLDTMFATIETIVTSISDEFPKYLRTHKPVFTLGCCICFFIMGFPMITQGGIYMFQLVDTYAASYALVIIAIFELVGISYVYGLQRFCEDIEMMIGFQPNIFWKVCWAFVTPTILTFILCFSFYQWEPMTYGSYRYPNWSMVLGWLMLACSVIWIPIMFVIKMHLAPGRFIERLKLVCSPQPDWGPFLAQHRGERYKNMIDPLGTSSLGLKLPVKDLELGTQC
Text: (§1) GlyT2a (referred to herein as GlyT2) was subcloned into the plasmid oocyte transcription vector (pOTV) for expression in Xenopus laevis oocytes. Oligonucleotide primers incorporating desired mutations were synthesized by Sigma-Aldrich and used to generate point mutations in the GlyT2 cDNA/pOTV construct using the Q5 site-directed mutagenesis kit (New England Biolabs [Genesearch]). Amplified PCR products were transformed into chemically competent E. coli cells and purified using the GeneJET Plasmid Miniprep Kit (Thermo Fisher Scientific). Purified plasmid DNA was sequence-verified by the Australian Genome Research Facility. pOTV constructs were linearized with the restriction enzyme SpeI (New England Biolabs [Genesearch]), and RNA was transcribed by T7 RNA polymerase using the mMESSAGE mMACHINE T7 kit (Thermo Fisher Scientific).
(§2) The transport activity of GlyT2 is an electrogenic process as it couples the transport of glycine to the co-transport of 3 Na^+ and 1 Cl^− and thus can be measured using two-electrode voltage-clamp electrophysiology. Oocytes expressing GlyTs were voltage-clamped at −60 mV, and glycine-induced whole-cell currents were measured using a GeneClamp 500 amplifier (Axon Instruments), and a PowerLab 2/26 chart recorder (ADInstruments) and LabChart Software (ADInstruments).
(§3) Functionality of WT and mutant GlyT2 transporters was assessed by applying increasing concentrations of glycine (1–3,000 µM) in ND96 until a stable current was achieved. Glycine concentrations were applied individually and completely removed from the system via washing with recording buffer before proceeding to the next concentration. EC50 values for each transporter were determined by fitting concentration–response data to the modified Michaelis–Menten equation: I=([Gly].Imax)/(EC50+[Gly]), where I is current in nA, [Gly] is the concentration of glycine, Imax is the current generated by a maximal concentration of glycine, and EC50 is the concentration of glycine that generates a half-maximal current.

GlyT2 L198A mutant = GlyT2 L198A mutant (Homo sapiens, UniProt Q9Y345, L198A)
GlyT2 L198A mutant, sequence (Q9Y345 whole entry L198A): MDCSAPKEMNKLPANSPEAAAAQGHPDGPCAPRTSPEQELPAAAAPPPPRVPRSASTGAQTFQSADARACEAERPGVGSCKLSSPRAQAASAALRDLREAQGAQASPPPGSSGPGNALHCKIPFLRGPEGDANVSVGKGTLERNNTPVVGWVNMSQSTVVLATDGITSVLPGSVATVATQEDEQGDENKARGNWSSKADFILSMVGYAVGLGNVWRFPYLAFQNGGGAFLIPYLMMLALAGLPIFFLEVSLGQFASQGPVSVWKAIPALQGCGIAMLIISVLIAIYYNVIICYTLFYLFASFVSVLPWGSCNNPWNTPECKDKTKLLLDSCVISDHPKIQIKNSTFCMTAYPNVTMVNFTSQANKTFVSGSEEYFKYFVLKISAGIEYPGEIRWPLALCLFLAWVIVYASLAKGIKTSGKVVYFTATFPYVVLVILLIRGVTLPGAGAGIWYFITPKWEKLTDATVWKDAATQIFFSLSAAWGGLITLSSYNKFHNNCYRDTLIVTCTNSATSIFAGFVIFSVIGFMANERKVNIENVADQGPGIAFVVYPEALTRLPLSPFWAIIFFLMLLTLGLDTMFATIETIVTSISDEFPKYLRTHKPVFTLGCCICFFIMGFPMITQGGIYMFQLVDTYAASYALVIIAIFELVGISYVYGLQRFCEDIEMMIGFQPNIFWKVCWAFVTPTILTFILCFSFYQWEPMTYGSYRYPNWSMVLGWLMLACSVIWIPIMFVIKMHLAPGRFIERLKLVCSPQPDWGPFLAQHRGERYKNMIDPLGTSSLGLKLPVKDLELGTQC
Text: as §1, §2, §3

GlyT2 Y430F mutant = target: T2, GlyT2 Y430F mutant (Homo sapiens, UniProt Q9Y345, Y430F); details: read-out: Glycine EC50; Y430F (TM5)
T2 sequence (Q9Y345 1-797 Y430F): T1 sequence (Q9Y345 1-797 F515W) with Y430F, W515F
Text: as §1, §2, §3

NCC(=O)O [Glycine, glycine]
EC50 (GlyT2 F515W mutant): 7.6 µM | Increase of glycine EC50 compared to WT (GlyT2 L198A mutant; L198A vs WT): 1.5 fold | EC50 (GlyT2 L198A mutant; read-out: Glycine EC50, L198A (TM1)): 28 µM | EC50 (GlyT2 Y430F mutant): 12 µM
